Read-outs that look alike come from different tables or passages of the source.
Columns and labels:
Type in all cases: in vivo
[1] = system: ryegrass, Italian (Italian ryegrass, Lolium multiflorum); experiment: Test A preemergence; details: Lolium multiflorum, pre-emergence, 240 h; for pest or weed control at 125 g/ha: 125 g ai/ha, Preemergence, visual injury rating after approximately 10 d, read-out: Ryegrass, Italian plant response rating (0 to 100 scale, 0 is no effect, 100 is complete control); for pest or weed control at 500 g/ha: 500 g ai/ha, preemergence, visual injury rating about 10 d after treatment, 0 to 100 scale (0 no effect, 100 complete control), read-out: Ryegrass, Italian plant response rating
Outline: (§1)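 Ratings of 0 (no effect) to 100 (complete control) come from visual comparison with untreated controls roughly 10 d after treatment. Test chemicals, formulated in a non-phytotoxic solvent mixture with surfactant, were applied either as a preemergence directed soil spray on seeded soil or postemergence to one- to two-leaf plants 2 to 10 cm tall.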

[2] = system: ragweed (common ragweed, Ambrosia elatior); experiment: Test A preemergence; details: Ambrosia artemisiifolia, pre-emergence, 240 h; for pest or weed control at 125 g/ha: 125 g ai/ha, Preemergence, visual injury rating after approximately 10 d, read-out: Ragweed plant response rating (0 to 100 scale, 0 is no effect, 100 is complete control); for pest or weed control at 500 g/ha: 500 g ai/ha, preemergence, visual injury rating about 10 d after treatment, 0 to 100 scale (0 no effect, 100 complete control), read-out: Ragweed plant response rating
Outline: as §1

Kochia (Kochia scoparia) [3] = experiment: Test A preemergence; details: Bassia scoparia, pre-emergence, 240 h; for pest or weed control at 125 g/ha: 125 g ai/ha, Preemergence, visual injury rating after approximately 10 d, read-out: Kochia plant response rating (0 to 100 scale, 0 is no effect, 100 is complete control); for pest or weed control at 500 g/ha: 500 g ai/ha, preemergence, visual injury rating about 10 d after treatment, 0 to 100 scale (0 no effect, 100 complete control), read-out: Kochia plant response rating
Outline: as §1

[4] = system: barnyardgrass (Echinochloa crus-galli); experiment: Test A preemergence; details: Echinochloa crus-galli, pre-emergence, 240 h; for pest or weed control at 125 g/ha: 125 g ai/ha, Preemergence, visual injury rating after approximately 10 d, read-out: Barnyardgrass plant response rating (0 to 100 scale, 0 is no effect, 100 is complete control); for pest or weed control at 500 g/ha: 500 g ai/ha, preemergence, visual injury rating about 10 d after treatment, 0 to 100 scale (0 no effect, 100 complete control), read-out: Barnyardgrass plant response rating
Outline: as §1

[5] = system: giant foxtail (Setaria faberii); experiment: Test A preemergence; details: Setaria faberi, pre-emergence, 240 h; for pest or weed control at 125 g/ha: 125 g ai/ha, Preemergence, visual injury rating after approximately 10 d, read-out: Foxtail, Giant plant response rating (0 to 100 scale, 0 is no effect, 100 is complete control); for pest or weed control at 500 g/ha: 500 g ai/ha, preemergence, visual injury rating about 10 d after treatment, 0 to 100 scale (0 no effect, 100 complete control), read-out: Foxtail, Giant plant response rating
Outline: as §1

[6] = system: pigweed (Amaranthus retroflexus); experiment: Test A preemergence; details: Amaranthus retroflexus, pre-emergence, 240 h; for pest or weed control at 125 g/ha: 125 g ai/ha, Preemergence, visual injury rating after approximately 10 d, read-out: Pigweed plant response rating (0 to 100 scale, 0 is no effect, 100 is complete control); for pest or weed control at 500 g/ha: 500 g ai/ha, preemergence, visual injury rating about 10 d after treatment, 0 to 100 scale (0 no effect, 100 complete control), read-out: Pigweed plant response rating
[7] = system: ryegrass, Italian (Italian ryegrass, Lolium multiflorum); experiment: Test A postemergence; details: Lolium multiflorum, post-emergence, 240 h, 125 g ai/ha, Postemergence; visual injury after approximately 10 d; 0 to 100 scale where 0 is no effect and 100 is complete control; read-out: Plant response rating, Ryegrass, Italian
Outline: as §1

[8] = system: wheat (Triticum aestivum); experiment: Test A postemergence; details: Triticum aestivum, post-emergence, 240 h, 125 g ai/ha, Postemergence; visual injury after approximately 10 d; 0 to 100 scale where 0 is no effect and 100 is complete control; read-out: Plant response rating, Wheat
Outline: as §1

[9] = system: Galium (catchweed bedstraw, Galium aparine); experiment: Test A postemergence; details: Galium, post-emergence, 240 h, 125 g ai/ha, Postemergence; visual injury after approximately 10 d; 0 to 100 scale where 0 is no effect and 100 is complete control; read-out: Plant response rating, Galium
Outline: as §1

[10] = system: ragweed (common ragweed, Ambrosia elatior); experiment: Test A postemergence; details: Ambrosia artemisiifolia, post-emergence, 240 h, 125 g ai/ha, Postemergence; visual injury after approximately 10 d; 0 to 100 scale where 0 is no effect and 100 is complete control; read-out: Plant response rating, Ragweed
Outline: as §1

[11] = system: blackgrass (Alopecurus myosuroides); experiment: Test A postemergence; details: Alopecurus myosuroides, post-emergence, 240 h, 125 g ai/ha, Postemergence; visual injury after approximately 10 d; 0 to 100 scale where 0 is no effect and 100 is complete control; read-out: Plant response rating, Blackgrass
Outline: as §1

Kochia (Kochia scoparia) [12] = experiment: Test A postemergence; details: Bassia scoparia, post-emergence, 240 h, 125 g ai/ha, Postemergence; visual injury after approximately 10 d; 0 to 100 scale where 0 is no effect and 100 is complete control; read-out: Plant response rating, Kochia
Outline: as §1

corn (Zea mays) = experiment: Test A postemergence; details: Zea mays, post-emergence, 240 h, 125 g ai/ha, Postemergence; visual injury after approximately 10 d; 0 to 100 scale where 0 is no effect and 100 is complete control
Outline: as §1

[13] = system: barnyardgrass (Echinochloa crus-galli); experiment: Test A postemergence; details: Echinochloa crus-galli, post-emergence, 240 h, 125 g ai/ha, Postemergence; visual injury after approximately 10 d; 0 to 100 scale where 0 is no effect and 100 is complete control; read-out: Plant response rating, Barnyardgrass
Outline: as §1

[14] = system: giant foxtail (Setaria faberii); experiment: Test A postemergence; details: Setaria faberi, post-emergence, 240 h, 125 g ai/ha, Postemergence; visual injury after approximately 10 d; 0 to 100 scale where 0 is no effect and 100 is complete control; read-out: Plant response rating, Foxtail, Giant
Outline: as §1

[15] = system: pigweed (Amaranthus retroflexus); experiment: Test A postemergence; details: Amaranthus retroflexus, post-emergence, 240 h, 125 g ai/ha, Postemergence; visual injury after approximately 10 d; 0 to 100 scale where 0 is no effect and 100 is complete control; read-out: Plant response rating, Pigweed
Outline: as §1

[16] = system: sedge, umbrella (small-flower umbrella sedge, Cyperus difformis); experiment: Test B flooded paddy test; details: Cyperus difformis, 250 g ai/ha, Flood, read-out: Sedge, Umbrella plant response rating
Outline: (§2)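 Response scored visually against untreated controls, 0 = no effect and 100 = complete control, 13–15 d after treatment in the greenhouse. Compounds added to paddy water held 3 cm above soil surface. Treatment given at 2-leaf stage.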

rice (Oryra sativa) = experiment: Test B flooded paddy test; details: Oryza sativa, Flood, 250 g ai/ha; scale of 0 to 100 where 0 is no effect and 100 is complete control; read-out: Rice plant response rating
Outline: as §2

[17] = system: ducksalad (Heteranthera limosa); experiment: Test B flooded paddy test; details: Heteranthera limosa, Flood, 250 g ai/ha; scale of 0 to 100 where 0 is no effect and 100 is complete control; read-out: Ducksalad plant response rating
Outline: as §2

[18] = system: barnyardgrass (Echinochloa crus-galli); experiment: Test B flooded paddy test; details: Echinochloa crus-galli, Flood, 250 g ai/ha; scale of 0 to 100 where 0 is no effect and 100 is complete control; read-out: Barnyardgrass plant response rating
Outline: as §2

| SMILES | pest or weed control at 125 g/ha [1] | pest or weed control at 500 g/ha [1] | pest or weed control at 125 g/ha [2] | pest or weed control at 500 g/ha [2] | pest or weed control at 125 g/ha (Kochia (Kochia scoparia) [3]) | pest or weed control at 500 g/ha (Kochia (Kochia scoparia) [3]) | pest or weed control at 125 g/ha [4] | pest or weed control at 500 g/ha [4] | pest or weed control at 125 g/ha [5] | pest or weed control at 500 g/ha [5] | pest or weed control at 125 g/ha [6] | pest or weed control at 500 g/ha [6] | pest or weed control at 125 g/ha [7] | plant injury at 125 g/ha [8] | pest or weed control at 125 g/ha [9] | pest or weed control at 125 g/ha [10] | pest or weed control at 125 g/ha [11] | pest or weed control at 125 g/ha (Kochia (Kochia scoparia) [12]) | Corn plant response rating (crop injury, 0 = no effect, 100 = complete kill) at 125 g/ha (corn (Zea mays)) | pest or weed control at 125 g/ha [13] | further results |
| --- | --- | --- | --- | --- | --- | --- | --- | --- | --- | --- | --- | --- | --- | --- | --- | --- | --- | --- | --- | --- | --- |
| CSc1ccccc1NC(=O)[C@H]1C(=O)N(C)C[C@@H]1c1ccc(F)c(Br)c1 [Compound 990] | 0% | 60% | 50% | 80% | 70% | 90% | 100% | 100% | 100% | 100% | 40% | 80% | 20% | 0% | 60% | 0% | 0% | 40% | 40% | 90% | pest or weed control at 125 g/ha [14]: 80%; pest or weed control at 125 g/ha [15]: 30%; pest or weed control at 250 g/ha ([16]; 0 to 100 scale where 0 is no effect and 100 is complete control): 0%; pest or weed control at 250 g/ha (rice (Oryra sativa)): 55%; pest or weed control at 250 g/ha [17]: 100%; pest or weed control at 250 g/ha [18]: 50% |
| O=C1NC[C@H](c2cc(C(F)(F)F)cs2)[C@H]1C(=O)Nc1ccccc1F [Compound 960] | 0% | 0% | 0% | 0% | 20% | 30% | 80% | 90% | 70% | 90% | 0% | 0% | 30% | 0% | 0% | 0% | 20% | 0% | 0% | 50% | pest or weed control at 125 g/ha [14]: 20%; pest or weed control at 125 g/ha [15]: 0%; pest or weed control at 250 g/ha ([16]; scale of 0 to 100 where 0 is no effect and 100 is complete control): 65%; pest or weed control at 250 g/ha (rice (Oryra sativa)): 0%; pest or weed control at 250 g/ha [17]: 100%; pest or weed control at 250 g/ha [18]: 20% |

Source: US12077503B2, “Substituted cyclic amides and their use as herbicides” (FMC CORPORATION, priority 2015, dated 2024)
